Results as given in publication PMC13095408, “DBeQ derivative targets vacuolar protein sorting 4 functions in cancer cells and suppresses tumor growth in mice” (The Journal of Pharmacology and Experimental Therapeutics, 2025).

Key:
Caco-2 permeability = assay type: in vitro ADME; conditions: human, 10 μM of compound
Experimental: All in vitro absorption, distribution, metabolism, and excretion (ADME) studies were conducted by BioDuro-Sundia. […] Caco-2 permeability, human liver microsomal stability, and human plasma protein binding assays as well as liquid chromatography-mass spectrometry/mass spectrometry analyses were performed following standard protocols previously described in detail ([Kazakova et al, 2023]).

VPS4B [1] = target: T1, VPS4B (Homo sapiens, UniProt O75351); test: VPS4B ATPase activity, EnzChek Phosphate assay; assay type: biochemical; parameters: His tag (pET28a vector-encoded) (N); made in house; host or cells: Escherichia coli BL21(DE3)
T1 sequence (O75351 1-444): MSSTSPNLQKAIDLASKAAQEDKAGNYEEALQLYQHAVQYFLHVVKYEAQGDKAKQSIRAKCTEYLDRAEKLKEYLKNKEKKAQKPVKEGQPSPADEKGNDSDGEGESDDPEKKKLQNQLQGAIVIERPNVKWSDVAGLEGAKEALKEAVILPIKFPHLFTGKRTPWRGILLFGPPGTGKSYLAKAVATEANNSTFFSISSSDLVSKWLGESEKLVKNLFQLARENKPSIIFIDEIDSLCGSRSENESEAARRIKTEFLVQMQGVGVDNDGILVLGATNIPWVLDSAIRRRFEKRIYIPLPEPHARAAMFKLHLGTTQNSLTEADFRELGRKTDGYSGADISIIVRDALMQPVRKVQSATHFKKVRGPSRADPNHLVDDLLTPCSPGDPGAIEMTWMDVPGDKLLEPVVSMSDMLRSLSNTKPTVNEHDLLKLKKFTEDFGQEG
Outline: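 EnzChek phosphate release (MESG/PNP, 360 nm) with ATPases at 1 μM (diluted stock) in HEPES pH 7.4 buffers with MgCl2, CaCl2, DTT, BSA, Triton; 30 min compound preincubation at RT, started with MgATP, read 20 min at 37 °C. Activity from 5-min linear initial rate, normalized to DMSO; IC50 from Hill slope −1 fit.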

VPS4B [2] = target: T1, VPS4B; test: VPS4B cellular thermal shift assay (CETSA); assay type: cell-based; parameters: endogenous in cells; host or cells: U2OS; conditions: 2 μM 4-107, 1 hour, starved U2OS cells
Experimental: The VPS4B CETSA was performed as previously described with modification ([Jafari et al, 2014]). In 10-cm dishes, near-confluent U2OS cells were rinsed with 1× DPBS and treated with the indicated compounds in acclimatized SM for 1 hour at 37 °C (0.1% DMSO). Cells were trypsinized, pelleted at 300 × g for 5 minutes, and washed with 1× PBS. After repeat pelleting at 300 × g for 5 minutes, the cells were resuspended in 1× PBS with protease inhibitor cocktail (1:250) and aliquoted into PCR strips with 20 μL per tube. PCR strips for each treatment were heated on a temperature gradient for 3 minutes using a thermal cycler (Bio-Rad Laboratories), followed by incubation at RT for 3 minutes. […] To normalize protein loading for SDS-PAGE, the soluble protein concentration of each 37 °C sample was quantified via the Pierce BCA assay ([…]), and a volume equal to 10 μg of protein was used for all samples from the same treatment. […] Signals were acquired with the Odyssey CLx (LI-COR) and quantified via densitometry using Image Studio version 6 (LI-COR). The remaining VPS4B levels were calculated by first obtaining the ratio of VPS4B:ACTB band intensities of each sample and then normalizing these ratios to that of the respective 37 °C sample. […]

COc1cccc2c(NCc3ccccc3)nc(NCc3ccccc3)nc12 [Compound 4-107, N^2,N^4-dibenzyl-8-methoxyquinazoline-2,4-diamine]
Papp A→B at 10 μM (Caco-2 permeability): 0.03 ×10⁻⁶ cm/s
Papp B→A at 10 μM (Caco-2 permeability): 0.3 ×10⁻⁶ cm/s
efflux ratio at 10 μM (Caco-2 permeability): 10.3
IC50 (VPS4B [1]; 0.5 μM enzyme): 3.7 ± 0.1 µM
VPS4B ATPase (% DMSO) (VPS4B [1]; remaining ATPase activity, screened at 5 μM, mean ± SD, Table 1, listed as 1): 36.67 ± 1.73 % DMSO
VPS4B ATPase (% DMSO) (VPS4B [1]; screened at 5 µM, mean ± S.D., Supplemental Table 2): 36.67 ± 1.73 % DMSO
decrease of VPS4B Tagg (VPS4B [2]): approximately 3 °C
